Laboratory results taken from ChEMBL document CHEMBL1201862, “PubChem BioAssay data set” (2004).
Each block holds one compound with its values, some of them ahead of it. Activity calls are given as the source filed them.

Columns and labels:
[1] = biological target: Delta-type opioid receptor (Homo sapiens, UniProt P41143); experiment: SAR Analysis of Antagonists of the DOR Receptor using an Image-Based Assay - Set 3. [Related pubchem assays (depositor defined):AID1777, AID1785]; assay type: functional;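 further: U2OS cells expressing DOR1 and beta-arrestin GFP stimulated with 100 nM SNC80; imaging of GFP-tagged beta-arrestin moving into spots after receptor activation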
Delta-type opioid receptor, sequence (P41143 whole entry): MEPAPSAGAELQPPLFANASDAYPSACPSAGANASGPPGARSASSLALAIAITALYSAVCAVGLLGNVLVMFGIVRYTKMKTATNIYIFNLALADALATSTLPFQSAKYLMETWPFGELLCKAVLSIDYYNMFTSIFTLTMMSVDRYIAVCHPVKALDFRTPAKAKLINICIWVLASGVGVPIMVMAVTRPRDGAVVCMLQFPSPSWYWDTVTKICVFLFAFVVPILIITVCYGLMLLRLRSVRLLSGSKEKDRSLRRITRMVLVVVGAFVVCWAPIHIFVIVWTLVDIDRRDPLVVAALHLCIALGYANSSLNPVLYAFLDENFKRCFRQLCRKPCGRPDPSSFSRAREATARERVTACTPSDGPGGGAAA

[2] = biological target: T1, Kappa-type opioid receptor (Homo sapiens, UniProt P41145); experiment: SAR analysis of small molecule antagonists of the kappa opioid receptor via a luminescent beta-arrestin assay - Set 3. [Related pubchem assays (depositor defined):AID1777, AID1778, AID1785, AID1786, AID1966, AID2133, AID2136, AID2285, AID2495]; assay type: functional
T1 sequence (P41145 whole entry): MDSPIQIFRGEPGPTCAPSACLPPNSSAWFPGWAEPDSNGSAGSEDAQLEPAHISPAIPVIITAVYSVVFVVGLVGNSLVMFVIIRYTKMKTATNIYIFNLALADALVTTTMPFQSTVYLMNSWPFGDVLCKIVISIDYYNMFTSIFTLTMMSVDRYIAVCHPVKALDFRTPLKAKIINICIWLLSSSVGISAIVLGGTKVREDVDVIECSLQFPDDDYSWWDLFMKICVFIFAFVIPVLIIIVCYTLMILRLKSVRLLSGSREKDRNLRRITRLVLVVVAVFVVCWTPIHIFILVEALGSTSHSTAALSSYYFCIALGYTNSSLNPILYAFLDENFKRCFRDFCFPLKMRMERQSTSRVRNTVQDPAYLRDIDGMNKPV

Mu-type opioid receptor = Mu-type opioid receptor (Homo sapiens, UniProt P35372); experiment: SAR Analysis of Antagonists of the MOR Receptor using an Image-Based Assay - Set 3. [Related pubchem assays (depositor defined):AID1777, AID1785, AID1786, AID1966, AID2133, AID2136, AID2284, AID2285, AID2420]; assay type: functional
Mu-type opioid receptor, sequence (P35372 whole entry): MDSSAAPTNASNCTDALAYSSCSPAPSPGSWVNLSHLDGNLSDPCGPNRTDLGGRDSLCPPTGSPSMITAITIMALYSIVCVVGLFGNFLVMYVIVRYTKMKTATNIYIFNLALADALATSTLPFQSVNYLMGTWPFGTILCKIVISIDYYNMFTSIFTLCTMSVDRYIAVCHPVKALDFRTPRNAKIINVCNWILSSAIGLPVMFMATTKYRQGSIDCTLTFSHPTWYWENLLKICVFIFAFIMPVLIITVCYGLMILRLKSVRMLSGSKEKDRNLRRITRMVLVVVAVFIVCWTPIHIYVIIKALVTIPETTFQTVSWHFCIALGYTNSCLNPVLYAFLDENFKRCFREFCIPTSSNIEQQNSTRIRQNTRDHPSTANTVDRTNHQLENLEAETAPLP

[3] = biological target: T1, Kappa-type opioid receptor; experiment: SAR analysis of Antagonists of the Kappa Opioid Receptor (KOR) using an Image-Based Assay - Set 4. [Related pubchem assays (depositor defined):AID1777, AID1785]; assay type: functional
T-cell = experiment: inhibitors of CD8+ T cell–vesicle binding, dose response, mouse 2C CD8+ T cells, flow cytometry (AID 485284); assay type: functional
Hexokinase = Hexokinase (Trypanosoma brucei, UniProt Q38C41); experiment: Confirmation assay for inhibitors of Trypanosoma brucei hexokinase 1-Analogue-first series. [Related pubchem assays (depositor defined):AID1430, AID1632, AID2516, AID2560, AID2579, AID2600, AID449725, AID492951]; assay type: functional
Hexokinase, sequence (Q38C41 whole entry): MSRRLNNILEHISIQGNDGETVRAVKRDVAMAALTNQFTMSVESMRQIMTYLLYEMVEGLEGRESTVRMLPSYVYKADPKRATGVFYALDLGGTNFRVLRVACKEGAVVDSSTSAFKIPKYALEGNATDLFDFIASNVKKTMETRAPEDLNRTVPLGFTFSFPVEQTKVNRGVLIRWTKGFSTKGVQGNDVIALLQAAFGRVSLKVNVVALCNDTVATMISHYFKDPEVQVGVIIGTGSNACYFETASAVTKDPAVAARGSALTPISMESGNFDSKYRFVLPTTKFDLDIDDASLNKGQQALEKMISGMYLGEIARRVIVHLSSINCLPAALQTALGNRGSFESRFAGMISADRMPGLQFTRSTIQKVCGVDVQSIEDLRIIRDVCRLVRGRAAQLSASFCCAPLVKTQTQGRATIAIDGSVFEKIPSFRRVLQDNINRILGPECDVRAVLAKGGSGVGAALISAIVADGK

[4] = biological target: Glucose-6-phosphate 1-dehydrogenase (Homo sapiens, UniProt P11413); experiment: human G6PD enzyme inhibitors, dose response, selectivity assay for P. falciparum G6PD inhibitor project, biochemical, fluorescence (AID 504792); assay type: functional
Glucose-6-phosphate 1-dehydrogenase, sequence (P11413 whole entry, the tested form may be a part): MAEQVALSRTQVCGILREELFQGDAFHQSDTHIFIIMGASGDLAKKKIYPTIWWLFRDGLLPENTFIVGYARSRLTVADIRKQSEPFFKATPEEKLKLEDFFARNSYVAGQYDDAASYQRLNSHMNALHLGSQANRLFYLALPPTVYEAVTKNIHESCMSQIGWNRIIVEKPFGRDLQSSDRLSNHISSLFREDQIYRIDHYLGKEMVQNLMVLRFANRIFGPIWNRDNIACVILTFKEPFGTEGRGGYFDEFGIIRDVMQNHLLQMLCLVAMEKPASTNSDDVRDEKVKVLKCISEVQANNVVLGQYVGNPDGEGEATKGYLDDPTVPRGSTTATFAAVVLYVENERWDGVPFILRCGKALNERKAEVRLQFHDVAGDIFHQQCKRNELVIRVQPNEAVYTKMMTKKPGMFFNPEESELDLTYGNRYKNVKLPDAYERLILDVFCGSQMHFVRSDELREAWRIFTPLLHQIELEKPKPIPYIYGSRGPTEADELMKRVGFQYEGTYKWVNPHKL

CHO = experiment: cytotoxicity in TLR9-MyD88 CHO cells, dose response, cytotoxicity control for TLR9-MyD88 binding inhibitor project, cell-based, luminescence (AID 588339); assay type: functional, hamster; settings: Cricetulus griseus;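 further: CHO cells stably coexpressing TLR9 and MyD88 fusions from primary screen; compound exposure lasted 48 hours before viability readout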
Beta Lactamase = Beta Lactamase (Pseudomonas aeruginosa, UniProt Q932Y6); experiment: beta-lactamase reporter inhibitor potency, dose response, artefact control for TLR9-MyD88 binding inhibitor project, BLA reporter cells, FRET fluorescence (AID 588341); assay type: cell-based;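 further: cell based assay in CHO-K1 cells stably expressing beta-lactamase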
Beta Lactamase, sequence (Q932Y6 whole entry): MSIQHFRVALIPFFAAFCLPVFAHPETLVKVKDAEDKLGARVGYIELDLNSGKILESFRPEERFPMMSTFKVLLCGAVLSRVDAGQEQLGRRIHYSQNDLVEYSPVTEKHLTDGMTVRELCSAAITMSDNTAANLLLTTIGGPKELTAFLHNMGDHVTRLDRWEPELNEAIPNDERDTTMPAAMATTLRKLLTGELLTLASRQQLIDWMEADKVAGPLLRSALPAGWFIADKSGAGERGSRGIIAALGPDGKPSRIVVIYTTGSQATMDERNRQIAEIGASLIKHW

Coagulation factor XII = biological target: T2, Coagulation factor XII (Homo sapiens, UniProt P00748); experiment: Factor XIIa Dose Response Confirmation from Single Well HTS. [Related pubchem assays (depositor defined):AID701]; assay type: functional
T2 sequence (P00748 whole entry): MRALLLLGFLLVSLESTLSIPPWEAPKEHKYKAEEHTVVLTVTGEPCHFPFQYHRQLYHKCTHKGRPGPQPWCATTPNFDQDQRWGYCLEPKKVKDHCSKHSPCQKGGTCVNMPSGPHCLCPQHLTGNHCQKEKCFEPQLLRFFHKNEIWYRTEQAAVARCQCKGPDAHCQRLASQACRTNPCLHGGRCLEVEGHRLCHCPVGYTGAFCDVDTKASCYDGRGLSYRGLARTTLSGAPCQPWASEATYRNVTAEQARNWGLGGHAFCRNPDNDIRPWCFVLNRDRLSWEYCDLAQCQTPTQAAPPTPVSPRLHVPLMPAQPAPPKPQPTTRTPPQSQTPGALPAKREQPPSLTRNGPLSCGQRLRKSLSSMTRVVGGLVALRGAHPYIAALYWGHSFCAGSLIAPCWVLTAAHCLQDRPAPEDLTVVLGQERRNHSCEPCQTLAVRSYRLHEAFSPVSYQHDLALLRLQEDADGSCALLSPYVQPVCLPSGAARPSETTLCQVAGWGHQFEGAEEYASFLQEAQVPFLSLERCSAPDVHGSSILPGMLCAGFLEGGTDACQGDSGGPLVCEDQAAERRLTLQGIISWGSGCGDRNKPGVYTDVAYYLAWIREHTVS

- IC50 [1]: > 32 µM (inactive)
- IC50 [2]: 0.875 µM (active)
- IC50 (Mu-type opioid receptor): > 32 µM (inactive)
- IC50 [3]: 2.28 µM (active)
SMILES: Cc1ccc(N2CCN(CCCNC(=O)Cn3c(=O)c4cccn4c4c(C)ccnc43)CC2)cc1

SMILES: CC(=O)c1ccc(-c2csc(N3CCC(C(N)=O)CC3)n2)cc1
- EC50 (T-cell): 2.47 µM (active)

SMILES: O=c1c2cc(C(F)(F)F)ccc2sn1-c1ccccc1
- IC50 (Hexokinase): > 25 µM (inactive)
- IC50 [4]: 18.3 µM (active)
- IC50 (CHO): 9.07 µM (active)
- IC50 (Beta Lactamase): > 49.8 µM (inactive)

- IC50 (Coagulation factor XII): > 50 µM (inactive)
SMILES: O=C(C1CCC1)N(CCc1ccccc1)Cc1nc(O)c2ccccc2n1
